Measurements reported in patent US20090054517A1, “Phytoestrogens As Regulators Of Hedgehog Signaling And Methods Of Their Use In Cancer Treatment” (priority 2007, published 2009).
Like-named read-outs stand apart in the source and are kept apart here.

What was measured:
[1] = system: TRAMP-C2 cells; assay: Growth of TRAMP-C2 cell line (total cellular protein); format: cell-based, mouse
Method: (§1) It has been shown that phytoestrogens in common herbs regulate prostate cancer cell growth in vitro (Shenouda et al., 2004). In order to determine whether these phytoestrogens also regulate cells derived from the mouse model of prostate cancer, the TRAMP-C2 cell line was treated with the soy phytoestrogen genistein and growth inhibition IC50 doses were determined (FIG. 4). Effects of the phytoestrogens genistein and EGCG on expression of these Hedgehog-pathway components were also determined by quantitative RT-PCR. Cyclopamine was used as a control. […] GAPDH was used as an internal control.

[2] = system: Patched1; assay: Patched1 mRNA levels by RT-PCR; format: cell-based, mouse
Method: as §1
(§2) Approximate IC50 values for pathway repression were determined as 30 μM for genistein, 20 μM for EGCG, and 5 μM for resveratrol. These concentrations may be easily obtainable pharmacologically in humans. […] Thus, Genistein, EGCG, and resveratrol may regulate prostate cancer via inhibition of the Hedgehog signaling pathway.

[3] = system: Gli1 protein in LNCaP cells; assay: Gli1 protein concentration in LNCaP cells by Western blot; format: cell-based, human
Method: as §2

[4] = system: Hedgehog signaling pathway; assay: Hedgehog pathway repression, approximate IC50 from RT-PCR; format: cell-based, mouse; details: read-out: Approximate IC50 for pathway repression
Method: Another experiment was carried out to determine the dosage response of these phytoestrogen on Gli1 expression in the TRAMP-C2 cell line. […] The results of this experiment verifies a correlation between phytoestrogen treatment and Hedgehog activity (FIG. 6). […] These concentrations may be easily obtainable pharmacologically in humans.

[5] = system: Gli1; assay: Gli1 mRNA expression by RT-PCR / real-time RT-PCR in TRAMP-C2 cells; format: cell-based, mouse; details: for suppression of Gli1 mRNA concentration compared with cyclopamine 30 μM: TRAMP-C2, time course 72 hrs, genistein 50 μM, EGCG 100 μM, FIG. 7A
Method: as §1
Another experiment was carried out to determine the dosage response of these phytoestrogen on Gli1 expression in the TRAMP-C2 cell line. Increasing amounts of genistein or EGCG were added to cell cultures of TRAMP-C2, and the levels of Gli1 mRNA was determined by real time RT-PCR. The results of this experiment verifies a correlation between phytoestrogen treatment and Hedgehog activity (FIG. 6).
In order to test whether the inhibitory effect of genistein on Gli1 transcription is through ERα or ERβ, experiments were conducted to determine whether 17β-estradiol (E2) works in the same manner as genistein (FIG. 7C).

[6] = system: Hedgehog pathway activity in Shh Light II cells; assay: Shh Light II Gli1-responsive luciferase reporter assay; format: cell-based; details: Shh Light II cells with sonic hedgehog protein, 24 hours, FIG. 7B
Method: The effects of various phytoestrogens on Hedgehog signaling in a non-tumor cell line Shh Light II were also assessed (FIG. 7B). Shh Light II cells were obtained from the ATCC. These cells, containing the Gli1 responsive promoter driving a luciferase reporter, are a standard tool used to assay Hedgehog pathway activity. Meloni et al., 2006. Cells were allowed to reach confluency in 24-well plates and subsequently treated with the selected phytoestrogens at the amount indicated on the figure, along with the stimulatory sonic hedgehog protein (obtained from R&D Systems). The cells were then grown for 24 hours in phenol red-free DMEM supplemented with 0.5% charcoal stripped fetal bovine serum. Cells were then lysed, and the luciferase and renilla activities of the cell lysates were measured.

[7] = system: estrogen receptor alpha (ERα) and beta (ERβ); details: cited from earlier work
[8] = system: prostate tumor in ERαKO/TRAMP mice; assay: Prostate tumorigenesis in ERαKO/TRAMP mice fed genistein diet; format: in vivo, mouse
Method: (§3) The influence of estrogen on prostate cancer has been previously described in the Background section. In order to determine the effect of genistein on prostate tumor development in the TRAMP model, in the first experiment, groups of ˜30 male mice, either ERαKO/TRAMP, ERβKO/TRAMP or ERWT/TRAMP were fed diets containing 0 or 300 mg genistein/kg (See Table 1). Mice were fed the diets from weaning and were euthanized at 5 months of age. Prostates were dissected and prepared for histopathology. The tumor stage was assessed using ratings of normal (N), hyperplasia (HYP), prostatic intraepithelial neoplasia (PIN), well differentiated carcinoma (WDC), moderately differentiated carcinoma (MDC) or poorly differentiated carcinoma (PDC) See Wechter et al., 2000; also see http://thegreenberglab.fhcrc.org. To summarize the data, non-cancer was defined as N, HYP or PIN and cancer was defined as WDC, MDC or PDC (Table 1) The prostate tumor incidence was compared between mice fed with genistein diet and those fed with casein.

[9] = system: prostate tumor in ERβKO/TRAMP mice; assay: Prostate tumorigenesis in ERβKO/TRAMP mice fed genistein diet; format: in vivo, mouse
Method: as §3

[10] = system: poorly differentiated carcinoma in TRAMP mouse; details: TRAMP mouse model; cited from earlier work
[11] = system: prostate tumor in ERWT/TRAMP mice; assay: Prostate tumorigenesis in ERWT/TRAMP mice fed genistein diet; format: in vivo, mouse
Method: as §3

[12] = in vivo; cited from earlier work
[13] = system: xenograft tumors; details: mice; cited from earlier work
[14] = ERαKO/TRAMP, 300 mg genistein/kg diet, 5 months of age
[15] = ERβKO/TRAMP, 300 mg genistein/kg diet, 5 months of age
[16] = ERWT/TRAMP, 300 mg genistein/kg diet, 5 months of age

## O=C(O[C@@H]1Cc2c(O)cc(O)cc2O[C@@H]1c1cc(O)c(O)c(O)c1)c1cc(O)c(O)c(O)c1 [EGCG]
[1]
  proliferation of TRAMP-C2 cells: inhibited
[2]
  reduction of Patched1 mRNA levels: 70%
[3]
  Gli1 protein concentration: significantly reduced
[4]; RT-PCR
  IC50: ~20 µM
[5]
  suppression of Gli1 mRNA concentration compared with cyclopamine 30 μM: more pronounced
[5]; TRAMP-C2 cells
  expression of Gli1, Gli2 and Gli3: down-regulate

## Oc1ccc(C=Cc2cc(O)cc(O)c2)cc1 [resveratrol]
[2]
  reduction of Patched1 mRNA levels: 50%
[3]
  Gli1 protein concentration: significantly reduced
[4]; Mus musculus, RT-PCR
  IC50: ~5 µM
[5]; RT-PCR
  reduction of Gli1 mRNA: 60%

## COc1cc(/C=C/C(=O)CC(=O)/C=C/c2ccc(O)c(OC)c2)ccc1O [curcumin]
[6]
  hedgehog activity (luciferase reporter activity): inhibit

## O=c1c(-c2ccc(O)cc2)coc2cc(O)cc(O)c12 [genistein]
[6]
  hedgehog activity (luciferase reporter activity): inhibit
[1]
  proliferation of TRAMP-C2 cells: inhibited
[7]
  binding to ERα and ERβ: bind both receptors with a higher affinity for ERβ
[8]; ERαKO/TRAMP mice, 300 mg genistein/kg diet from weaning to 5 months
  protective effect on prostate tumor incidence versus casein diet: not
[8]; [14]
  HYP (2), number of mice: 0
  MDC (5), incidence: 3.8%
  MDC (5), number of mice: 1
  Normal (Stage1), incidence: 3.8%
  Normal (Stage1), number of mice: 1
  PDC (6), number of mice: 0
  PIN (3), incidence: 3.8%
  PIN (3), number of mice: 1
  WDC (4), incidence: 88.6%
  WDC (4), number of mice: 23
[2]
  reduction of Patched1 mRNA levels: 70%
[9]; ERβKO/TRAMP mice, 300 mg genistein/kg diet from weaning to 5 months
  protective effect on prostate tumor incidence versus casein diet: not
[9]; [15]
  HYP (2), number of mice: 0
  MDC (5), number of mice: 0
  Normal (Stage1), number of mice: 0
  PDC (6), incidence: 48%
  PDC (6), number of mice: 10
  PIN (3), incidence: 19%
  PIN (3), number of mice: 4
  WDC (4), incidence: 33%
  WDC (4), number of mice: 7
[3]
  Gli1 protein concentration: significantly reduced
[4]; Mus musculus
  IC50: ~30 µM
[10]
  effect on poorly differentiated carcinoma: protective effect
[5]
  suppression of Gli1 mRNA concentration compared with cyclopamine 30 μM: more pronounced
[5]; TRAMP-C2 cells
  expression of Gli1, Gli2 and Gli3: down-regulate
[5]; TRAMP-C2 cells, RT-PCR, FIG. 5, GAPDH internal control
  Gli1 expression compared to the untreated control: down-regulates
[5]; TRAMP-C2 cells, with 10 nM E2, FIG. 7C
  effect of addition of genistein on inhibition of Gli1 expression by E2: did not enhance
[11]; ERWT/TRAMP mice, 300 mg genistein/kg diet from weaning to 5 months
  protective effect on prostate tumor incidence versus casein diet: significant protective effect
[11]; [16]
  HYP (2), incidence: 28%
  HYP (2), number of mice: 15
  MDC (5), incidence: 2%
  MDC (5), number of mice: 1
  Normal (Stage1), number of mice: 0
  PDC (6), incidence: 24%
  PDC (6), number of mice: 13
  PIN (3), incidence: 33%
  PIN (3), number of mice: 18
  WDC (4), incidence: 13%
  WDC (4), number of mice: 7

## C[C@]12CC[C@@H]3c4ccc(O)cc4CC[C@H]3[C@@H]1CC[C@@H]2O [E2, 17β-estradiol, reference compound]
[5]; TRAMP-C2 cells, 10 nM, 24 hours, FIG. 7C
  inhibition of Gli1 expression: Strong inhibition

## CC1=C2C[C@H]3[C@@H](CC=C4C[C@@H](O)CC[C@@]43C)[C@@H]2CC[C@]12O[C@@H]1C[C@H](C)CN[C@H]1[C@H]2C [cyclopamine]
[12]
  birth defects in the progeny: cause birth defects, most notably cyclopia
[13]
  effect on xenograft tumors: complete regression
